In PubChem BioAssay (NCI):
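Interpolation was linear, between the two tested concentrations surrounding the appropriate level; five concentrations were tested over 48 hours in 96-well plates. GI50: concentration for 50% inhibition of growth. At the TGI there is no net growth.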 Peptide text beside a SMILES is read from it. * marks the point of attachment. Boc = CC(C)(C)OC(=O)*

Legend:
Experiment in all cases: inhibition of tumour cell growth, NCI panel, 48 h
[1] = test system: HS 578T breast
[2] = test system: SNB-75 CNS
[3] = test system: UACC-62 melanoma
[4] = test system: RPMI-8226 leukemia
[5] = test system: MDA-MB-231 breast
[6] = test system: NCI-H460 lung
[7] = test system: SF-268 CNS
[8] = test system: SK-MEL-28 melanoma
[9] = test system: HT29 colon
[10] = test system: HCT-116 colon
[11] = test system: A498 renal
[12] = test system: MDA-MB-435
[13] = test system: HCC-2998 colon
[14] = test system: OVCAR-8 ovarian
[15] = test system: T-47D breast
[16] = test system: 786-0 renal
[17] = test system: NCI-H226 lung
[18] = test system: SK-MEL-5 melanoma
[19] = test system: SR leukemia
[20] = test system: COLO 205 colon
[21] = test system: UACC-257 melanoma
[22] = test system: NCI-H522 lung
[23] = test system: HOP-62 NSCLC
[24] = test system: A549 NSCLC
[25] = test system: SK-MEL-2 melanoma
[26] = test system: MALME-3M melanoma
[27] = test system: CCRF-CEM leukemia
[28] = test system: HL-60(TB) leukemia
[29] = test system: HOP-92 NSCLC
[30] = test system: SN12C renal
[31] = test system: NCI/ADR-RES ovarian
[32] = test system: K-562 leukemia
[33] = test system: NCI-H23 lung
[34] = test system: IGROV1 ovarian
[35] = test system: SF-539 CNS
[36] = test system: MCF7 breast
[37] = test system: TK-10 renal
[38] = test system: ACHN renal
[39] = test system: OVCAR-5 ovarian
[40] = test system: OVCAR-4 ovarian
[41] = test system: KM12 colon
[42] = test system: M14 melanoma
[43] = test system: OVCAR-3 ovarian
[44] = test system: U251 CNS
[45] = test system: HCT-15 colon
[46] = test system: SNB-19 CNS
[47] = test system: SF-295 CNS
[48] = test system: SK-OV-3 ovarian
[49] = test system: MOLT-4 leukemia
[50] = test system: PC-3 prostate
[51] = test system: UO-31 renal
[52] = test system: EKVX NSCLC
[53] = test system: LOX IMVI melanoma
[54] = test system: SW-620 colon
[55] = test system: CAKI-1 renal

Question: With `CC(NC(=O)C(NC(=O)OC(C)(C)C)C(C)C)C(=O)N1CCCC1C(=O)O` (stereo not drawn) (Boc-Val-Ala-Pro-OH; configuration not given here) as the molecule, how does the GI50 [1] read?
Answer: 38.1 mg/L

Question: What about the GI50 [2] of the same molecule?
Answer: 0.0101 mg/L

Question: And the TGI [2]?
Answer: 0.09 mg/L

Question: And the GI50 [3]?
Answer: 36.2 mg/L

Question: Which GI50 [4] does the source give for `Cc1cc(N2CCCC2)nc(N(CCCNc2ccnc3cc(Cl)ccc23)Cc2ccc3c(c2)OCO3)n1` here?
Answer: 0.322 µM

Question: And the TGI [4]?
Answer: 1.72 µM

Question: And the GI50 [5]?
Answer: 0.681 µM

Question: What about the TGI [5] of the same molecule?
Answer: 3.42 µM

Question: And the GI50 [6]?
Answer: 1.29 µM

Question: And the TGI [6]?
Answer: 4.34 µM

Question: What about the GI50 [7] of the same molecule?
Answer: 2.89 µM

Question: And the TGI [7]?
Answer: 16.6 µM

Question: And the GI50 [8]?
Answer: 1.3 µM

Question: And the TGI [8]?
Answer: 2.74 µM

Question: What about the GI50 [9] of the same molecule?
Answer: 0.541 µM

Question: What about the TGI [9] of the same molecule?
Answer: 2.83 µM

Question: What about the GI50 [10] of the same molecule?
Answer: 0.511 µM

Question: And the TGI [10]?
Answer: 3.3 µM

Question: And the GI50 [11]?
Answer: 2.44 µM

Question: And the TGI [11]?
Answer: 7.5 µM

Question: And the GI50 [12]?
Answer: 1.26 µM

Question: What about the TGI [12] of the same molecule?
Answer: 2.56 µM

Question: What about the GI50 [13] of the same molecule?
Answer: 1.79 µM

Question: And the TGI [13]?
Answer: 3.79 µM

Question: What about the GI50 [14] of the same molecule?
Answer: 1.8 µM

Question: What about the TGI [14] of the same molecule?
Answer: 5.41 µM

Question: And the GI50 [15]?
Answer: 1.42 µM

Question: What about the TGI [15] of the same molecule?
Answer: 4.66 µM

Question: What about the GI50 [16] of the same molecule?
Answer: 1.11 µM

Question: And the TGI [16]?
Answer: 2.8 µM

Question: And the GI50 [17]?
Answer: 5.2 µM

Question: And the TGI [17]?
Answer: 33.8 µM

Question: What about the GI50 [18] of the same molecule?
Answer: 1.53 µM

Question: And the TGI [18]?
Answer: 2.9 µM

Question: And the GI50 [19]?
Answer: 0.152 µM

Question: What about the TGI [19] of the same molecule?
Answer: 0.431 µM

Question: And the GI50 [1]?
Answer: 1.74 µM

Question: And the TGI [1]?
Answer: 4.21 µM

Question: And the GI50 [20]?
Answer: 1.39 µM

Question: What about the TGI [20] of the same molecule?
Answer: 3 µM

Question: What about the GI50 [21] of the same molecule?
Answer: 1.84 µM

Question: What about the TGI [21] of the same molecule?
Answer: 3.47 µM

Question: And the GI50 [22]?
Answer: 1.66 µM

Question: What about the TGI [22] of the same molecule?
Answer: 3.95 µM

Question: And the GI50 [23]?
Answer: 1.83 µM

Question: What about the TGI [23] of the same molecule?
Answer: 10.2 µM

Question: What about the GI50 [24] of the same molecule?
Answer: 2.74 µM

Question: And the TGI [24]?
Answer: 12.5 µM

Question: And the GI50 [25]?
Answer: 1.84 µM

Question: What about the TGI [25] of the same molecule?
Answer: 4 µM

Question: And the GI50 [26]?
Answer: 1.65 µM

Question: And the TGI [26]?
Answer: 3.2 µM

Question: And the GI50 [27]?
Answer: 0.398 µM

Question: What about the TGI [27] of the same molecule?
Answer: 4.03 µM

Question: What about the GI50 [28] of the same molecule?
Answer: 0.402 µM

Question: What about the TGI [28] of the same molecule?
Answer: 1.36 µM

Question: What about the GI50 [29] of the same molecule?
Answer: 0.0237 µM

Question: What about the TGI [29] of the same molecule?
Answer: 2.96 µM

Question: And the GI50 [30]?
Answer: 1.76 µM

Question: What about the TGI [30] of the same molecule?
Answer: 11.3 µM

Question: What about the GI50 [31] of the same molecule?
Answer: 1.43 µM

Question: And the TGI [31]?
Answer: 3.92 µM

Question: What about the GI50 [32] of the same molecule?
Answer: 0.218 µM

Question: And the TGI [32]?
Answer: 1.86 µM

Question: And the GI50 [33]?
Answer: 2.36 µM

Question: And the TGI [33]?
Answer: 15.5 µM

Question: What about the GI50 [34] of the same molecule?
Answer: 1.38 µM

Question: What about the TGI [34] of the same molecule?
Answer: 4.33 µM

Question: What about the GI50 [35] of the same molecule?
Answer: 1.23 µM

Question: And the TGI [35]?
Answer: 2.6 µM

Question: And the GI50 [36]?
Answer: 1.17 µM

Question: And the TGI [36]?
Answer: 4.98 µM

Question: And the GI50 [2]?
Answer: 1.54 µM

Question: And the TGI [2]?
Answer: 4.33 µM

Question: What about the GI50 [37] of the same molecule?
Answer: 2.25 µM

Question: What about the TGI [37] of the same molecule?
Answer: 6.81 µM

Question: What about the GI50 [38] of the same molecule?
Answer: 1.67 µM

Question: What about the TGI [38] of the same molecule?
Answer: 5.93 µM

Question: And the GI50 [39]?
Answer: 2.46 µM

Question: What about the TGI [39] of the same molecule?
Answer: 8.92 µM

Question: And the GI50 [40]?
Answer: 1.86 µM

Question: What about the TGI [40] of the same molecule?
Answer: 8.22 µM

Question: And the GI50 [41]?
Answer: 2.73 µM

Question: And the TGI [41]?
Answer: 11 µM

Question: What about the GI50 [42] of the same molecule?
Answer: 1.37 µM

Question: And the TGI [42]?
Answer: 3.04 µM

Question: And the GI50 [3]?
Answer: 1.78 µM

Question: What about the TGI [3] of the same molecule?
Answer: 3.38 µM

Question: And the GI50 [43]?
Answer: 1.06 µM

Question: And the TGI [43]?
Answer: 2.87 µM

Question: And the GI50 [44]?
Answer: 1.57 µM

Question: What about the TGI [44] of the same molecule?
Answer: 5.2 µM

Question: What about the GI50 [45] of the same molecule?
Answer: 0.805 µM

Question: And the TGI [45]?
Answer: 5.82 µM

Question: And the GI50 [46]?
Answer: 2.45 µM

Question: What about the TGI [46] of the same molecule?
Answer: 12.7 µM

Question: And the GI50 [47]?
Answer: 1.16 µM

Question: What about the TGI [47] of the same molecule?
Answer: 2.89 µM

Question: And the GI50 [48]?
Answer: 4.98 µM

Question: What about the TGI [48] of the same molecule?
Answer: 20.3 µM

Question: And the GI50 [49]?
Answer: 1.3 µM

Question: What about the TGI [49] of the same molecule?
Answer: 4.64 µM

Question: What about the GI50 [50] of the same molecule?
Answer: 1.47 µM

Question: What about the TGI [50] of the same molecule?
Answer: 12 µM

Question: What about the GI50 [51] of the same molecule?
Answer: 0.677 µM

Question: And the TGI [51]?
Answer: 3.71 µM

Question: And the GI50 [52]?
Answer: 3.16 µM

Question: What about the TGI [52] of the same molecule?
Answer: > 100 µM

Question: And the GI50 [53]?
Answer: 1.03 µM

Question: And the TGI [53]?
Answer: 2.35 µM

Question: What about the GI50 [54] of the same molecule?
Answer: 1.21 µM

Question: What about the TGI [54] of the same molecule?
Answer: 2.87 µM

Question: Which results are given for `N=C(N)c1ccc(-c2ccc(-c3ccc(Cl)cc3)o2)nc1`?
Answer: GI50 [55]: 1.42 µM; TGI [55]: 2.74 µM
